Assay results as given in patent publication US20140227191A1, “L-GLUTAMIC ACID AND L-GLUTAMINE DERIVATIVE (III), USE THEREOF AND METHOD FOR OBTAINING THEM” (BAYER SCHERING PHARMA AKTIENGESELLSCHAFT, priority 2008, published 2014).
Where a name gives a salt, the structure may show the parent alone.

Test system: A549 cells (human Non Small Cell Lung Cancer)
Assay: cytotoxicity assay with A549 cells using standard Alamar Blue Assay
Details: for cell vitality: A549 cells, 48 h incubation, Alamar Blue, versus control cells, L-Glutamate at 2 mM
Method: A Dulbecco's modified Eagle's Medium (Sigma D0422), supplemented with Glutamine and 10% foetal calf serum (FCS) were used as incubation buffer. The cells were incubated for 48 h with test compounds and investigated according to manufacturer's protocol.
Afterwards, cell vitality was measured with the Alamar Blue assay kit as described above.

SMILES | cell vitality | EC50 (Homo sapiens, A549, read-out: EC50 (cell vitality))
N[C@@H](C[C@H](CCCF)C(=O)O)C(=O)O [Example 1] | strong decrease of the cell vitality | ~38 µM
N[C@@H](C[C@H](Cc1cc(C(F)(F)F)ccc1F)C(=O)O)C(=O)O [Example 5, Neutral sodium salt of (2S,4S)-2-Amino-4-(2-fluoro-5-trifluoromethyl-benzyl)-pentane dioic acid] | strong decrease of the cell vitality | 
N[C@@H](CCC(=O)O)C(=O)O [L-Glutamate, reference compound] | no differences in cell vitality | 
